Tests used:
Caci_0382 [1] = target: T1, Caci_0382 (Catenulispora acidiphila, UniProt C7PVH9); assay: fluorescence thermal shift (Sypro Orange); type: binding; details: 20 mM Hepes pH 7.5, 150 mM NaCl; 14 μM protein; printed as Tm but evidently the Tm shift; unit and concentration not given; in °C (unit assumed)
T1 construct: homodimer
T1 sequence (C7PVH9 1-134): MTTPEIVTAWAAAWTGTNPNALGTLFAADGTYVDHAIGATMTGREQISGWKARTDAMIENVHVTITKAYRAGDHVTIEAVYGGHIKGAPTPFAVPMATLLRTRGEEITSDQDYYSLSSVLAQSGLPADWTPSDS

Caci_0382 [2] = target: T1, Caci_0382; assay: fluorescence thermal shift (Sypro Orange); type: binding; details: read-out: Tm shift at 0.1 mM
[3] = target: the molecule itself; assay: SEC; gel-filtration chromatography, data not shown

How did the Tm (Caci_0382 [1]) turn out when c1c[nH]cn1 [Imidazole] was run?
Its Tm is 10.26.

Which ΔTm at 100 µM (Caci_0382 [2]) does the source give for CN(C)C [TMA, trimethylamine] here?
Its ΔTm at 100 µM is 3 °C.

B1: Caci_0382 from Catenulispora acidiphila DSM 44928 (natural protein)
chain: T1 sequence (C7PVH9 1-134)
modifications: selenomethionine-labeled
notes: Caci_0382, hypothetical protein of the NTF2-like family, Catenulispora acidiphila DSM 44928; the gene encodes a 134 amino-acid protein of 14.3 kDa; Subcloned in the pMCSG57 vector, which adds a 6 His-Tag at the N-terminus; 131 Calpha atoms per subunit were aligned between the two crystal forms; also called hypothetical protein Caci_0382
With B1 as the molecule, how does the “stoichiometry N” value [3] read?
The value was 2.

Source: PMC3955178, “Structural characterization of a hypothetical protein: a potential agent involved in trimethylamine metabolism in Catenulispora acidiphila” (Journal of Structural and Functional Genomics, 2014)
